Data as given in patent US8501749B2, “Azaquinazolinediones chymase inhibitors” (Boehringer Ingelheim International GmbH, priority 2009, dated 2013).

Biological target: Chymase (Homo sapiens (Human), UniProt P23946)
Conditions: read-out: Chymase IC50; fluorogenic rhodamine 110 peptide substrate, 1 hour at 28° C., 1% DMSO

Chymase, sequence (P23946 22-247): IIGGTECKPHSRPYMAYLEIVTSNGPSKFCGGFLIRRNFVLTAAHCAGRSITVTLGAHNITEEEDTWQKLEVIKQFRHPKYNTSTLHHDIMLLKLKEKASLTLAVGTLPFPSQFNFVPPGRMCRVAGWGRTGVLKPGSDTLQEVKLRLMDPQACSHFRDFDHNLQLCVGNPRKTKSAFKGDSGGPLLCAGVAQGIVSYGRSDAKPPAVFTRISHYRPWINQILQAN

Question: Which IC50 does the source give for `CC[C@H](CC(=O)O)n1c(=O)c2ncccc2n(Cc2cn(C)c3cc(C)cc(C)c23)c1=O` [(R)-3-[2,4-Dioxo-1-(1,4,6-trimethyl-1H-indol-3-ylmethyl)-1,4-dihydro-2H-pyrido[3,2-d]pyrimidin-3-yl]-pentanoic acid] here?
Answer: 0.4 nM
